Assay [1] addresses Calcium/calmodulin-dependent protein kinase kinase 2 (Homo sapiens, UniProt Q96RR4).
In assay [2] the target is Cyclin-dependent kinase 1 (Homo sapiens, UniProt P06493).
Assay [3] deals with T1, Cytochrome c1, heme protein, mitochondrial (Homo sapiens, UniProt P08574).
T1 sequence (P08574 whole entry): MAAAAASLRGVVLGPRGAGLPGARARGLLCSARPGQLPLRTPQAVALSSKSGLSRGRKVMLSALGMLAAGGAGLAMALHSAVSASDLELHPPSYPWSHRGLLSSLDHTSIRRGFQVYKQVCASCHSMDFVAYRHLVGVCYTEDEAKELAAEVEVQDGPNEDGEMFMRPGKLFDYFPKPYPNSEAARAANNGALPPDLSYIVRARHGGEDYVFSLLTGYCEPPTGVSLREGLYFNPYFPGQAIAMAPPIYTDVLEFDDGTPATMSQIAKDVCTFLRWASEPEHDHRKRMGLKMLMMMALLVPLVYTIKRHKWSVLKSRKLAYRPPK

Assay [4] concerns the target Fibroblast growth factor receptor 1 (Homo sapiens, UniProt P11362).
Assay [5] concerns the target Guanine nucleotide-binding protein G(i) subunit alpha-2 (Homo sapiens, UniProt P04899).
Assay [6] has as its target T2, ATP-dependent 6-phosphofructokinase, platelet type (Homo sapiens, UniProt Q01813).
T2 sequence (Q01813 whole entry): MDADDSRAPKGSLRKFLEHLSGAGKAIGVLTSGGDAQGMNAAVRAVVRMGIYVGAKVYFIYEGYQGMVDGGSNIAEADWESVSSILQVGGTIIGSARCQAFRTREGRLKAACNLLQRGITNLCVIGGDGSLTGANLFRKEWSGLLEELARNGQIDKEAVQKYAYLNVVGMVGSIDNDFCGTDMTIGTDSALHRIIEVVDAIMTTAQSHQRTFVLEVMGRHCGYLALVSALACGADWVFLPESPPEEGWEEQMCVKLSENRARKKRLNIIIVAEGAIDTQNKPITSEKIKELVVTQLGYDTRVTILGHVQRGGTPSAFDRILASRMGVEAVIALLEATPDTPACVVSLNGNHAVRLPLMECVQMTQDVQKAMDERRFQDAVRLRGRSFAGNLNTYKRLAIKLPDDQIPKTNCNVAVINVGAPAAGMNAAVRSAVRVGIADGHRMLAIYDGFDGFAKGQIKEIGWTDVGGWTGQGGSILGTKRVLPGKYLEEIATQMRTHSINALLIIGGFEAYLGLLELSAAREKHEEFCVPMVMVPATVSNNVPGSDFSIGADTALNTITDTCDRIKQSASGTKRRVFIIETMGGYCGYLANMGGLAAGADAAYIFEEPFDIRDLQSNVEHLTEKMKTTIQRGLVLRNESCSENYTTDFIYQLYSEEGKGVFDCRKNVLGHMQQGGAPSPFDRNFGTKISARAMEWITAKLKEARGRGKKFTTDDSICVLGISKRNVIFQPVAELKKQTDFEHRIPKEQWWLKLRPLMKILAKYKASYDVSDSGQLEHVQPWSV

Assay [7] concerns the target T3, Phosphorylase b kinase gamma catalytic chain, liver/testis isoform (Homo sapiens, UniProt P15735).
T3 sequence (P15735 whole entry): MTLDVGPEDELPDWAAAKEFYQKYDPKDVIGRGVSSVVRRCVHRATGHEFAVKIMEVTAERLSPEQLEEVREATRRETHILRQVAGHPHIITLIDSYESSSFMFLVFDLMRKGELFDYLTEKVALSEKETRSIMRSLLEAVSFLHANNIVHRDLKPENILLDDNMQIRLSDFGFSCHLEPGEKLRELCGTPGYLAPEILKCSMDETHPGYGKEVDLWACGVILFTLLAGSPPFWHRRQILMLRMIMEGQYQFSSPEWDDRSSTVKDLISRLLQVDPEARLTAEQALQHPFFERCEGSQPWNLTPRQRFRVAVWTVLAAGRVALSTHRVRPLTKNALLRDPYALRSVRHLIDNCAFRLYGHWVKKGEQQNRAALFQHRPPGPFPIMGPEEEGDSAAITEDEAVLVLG

Assay [8] concerns the target T4, Serine/threonine-protein kinase D2 (Homo sapiens, UniProt Q9BZL6).
T4 sequence (Q9BZL6 whole entry): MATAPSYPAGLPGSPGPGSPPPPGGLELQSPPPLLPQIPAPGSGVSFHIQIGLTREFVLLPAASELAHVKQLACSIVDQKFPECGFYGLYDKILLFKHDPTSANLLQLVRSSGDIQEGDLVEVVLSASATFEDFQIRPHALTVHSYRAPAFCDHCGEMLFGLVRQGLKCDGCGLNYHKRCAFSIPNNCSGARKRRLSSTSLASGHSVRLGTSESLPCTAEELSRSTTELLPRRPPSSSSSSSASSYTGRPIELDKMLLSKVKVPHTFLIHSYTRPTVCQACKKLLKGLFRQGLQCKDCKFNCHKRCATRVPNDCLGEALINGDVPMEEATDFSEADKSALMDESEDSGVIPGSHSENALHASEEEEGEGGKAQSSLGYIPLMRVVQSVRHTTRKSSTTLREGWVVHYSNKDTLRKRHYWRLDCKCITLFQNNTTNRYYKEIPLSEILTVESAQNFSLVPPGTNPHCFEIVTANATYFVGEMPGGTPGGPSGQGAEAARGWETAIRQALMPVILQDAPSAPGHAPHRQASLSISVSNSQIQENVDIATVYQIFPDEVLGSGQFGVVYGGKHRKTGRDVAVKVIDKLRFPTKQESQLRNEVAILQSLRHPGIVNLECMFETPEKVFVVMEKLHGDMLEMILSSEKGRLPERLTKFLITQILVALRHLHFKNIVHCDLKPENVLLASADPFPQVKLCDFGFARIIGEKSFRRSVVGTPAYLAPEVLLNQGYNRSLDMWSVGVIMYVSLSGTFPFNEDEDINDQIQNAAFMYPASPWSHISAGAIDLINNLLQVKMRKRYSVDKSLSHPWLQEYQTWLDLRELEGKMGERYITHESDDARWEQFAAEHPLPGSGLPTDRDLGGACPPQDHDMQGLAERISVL

Assay [9] deals with Elongation factor Tu, mitochondrial (Homo sapiens, UniProt P49411).

Calls of active or inactive are those of the source. Cut-off read from the data, not from the text of the source, for most assays here: actives have a measured Kd and inactives only a lower limit. Bounds are passed on as bounds.
Note: in the data inactive means no Kd found up to 30 µM.

Chain of Cyclin-dependent kinase 1 (P06493 whole entry): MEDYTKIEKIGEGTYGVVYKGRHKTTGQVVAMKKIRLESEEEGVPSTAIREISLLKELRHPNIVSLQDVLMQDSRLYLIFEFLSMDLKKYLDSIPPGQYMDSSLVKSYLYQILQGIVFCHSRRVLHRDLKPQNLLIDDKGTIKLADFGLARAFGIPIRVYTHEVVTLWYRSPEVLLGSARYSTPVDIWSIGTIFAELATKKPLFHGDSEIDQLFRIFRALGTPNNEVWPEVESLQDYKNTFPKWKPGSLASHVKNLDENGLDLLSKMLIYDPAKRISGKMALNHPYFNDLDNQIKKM
Chain of Guanine nucleotide-binding protein G(i) subunit alpha-2 (P04899 whole entry): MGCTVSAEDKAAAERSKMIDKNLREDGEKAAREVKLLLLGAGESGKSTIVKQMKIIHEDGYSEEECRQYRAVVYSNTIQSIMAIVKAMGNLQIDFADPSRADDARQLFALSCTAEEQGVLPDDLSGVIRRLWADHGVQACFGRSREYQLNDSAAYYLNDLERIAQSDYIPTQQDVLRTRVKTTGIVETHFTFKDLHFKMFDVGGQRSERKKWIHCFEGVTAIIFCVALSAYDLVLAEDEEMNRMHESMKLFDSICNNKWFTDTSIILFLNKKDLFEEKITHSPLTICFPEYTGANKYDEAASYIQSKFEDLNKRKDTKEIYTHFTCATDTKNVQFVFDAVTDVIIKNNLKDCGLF
Chain of Fibroblast growth factor receptor 1 (P11362 whole entry): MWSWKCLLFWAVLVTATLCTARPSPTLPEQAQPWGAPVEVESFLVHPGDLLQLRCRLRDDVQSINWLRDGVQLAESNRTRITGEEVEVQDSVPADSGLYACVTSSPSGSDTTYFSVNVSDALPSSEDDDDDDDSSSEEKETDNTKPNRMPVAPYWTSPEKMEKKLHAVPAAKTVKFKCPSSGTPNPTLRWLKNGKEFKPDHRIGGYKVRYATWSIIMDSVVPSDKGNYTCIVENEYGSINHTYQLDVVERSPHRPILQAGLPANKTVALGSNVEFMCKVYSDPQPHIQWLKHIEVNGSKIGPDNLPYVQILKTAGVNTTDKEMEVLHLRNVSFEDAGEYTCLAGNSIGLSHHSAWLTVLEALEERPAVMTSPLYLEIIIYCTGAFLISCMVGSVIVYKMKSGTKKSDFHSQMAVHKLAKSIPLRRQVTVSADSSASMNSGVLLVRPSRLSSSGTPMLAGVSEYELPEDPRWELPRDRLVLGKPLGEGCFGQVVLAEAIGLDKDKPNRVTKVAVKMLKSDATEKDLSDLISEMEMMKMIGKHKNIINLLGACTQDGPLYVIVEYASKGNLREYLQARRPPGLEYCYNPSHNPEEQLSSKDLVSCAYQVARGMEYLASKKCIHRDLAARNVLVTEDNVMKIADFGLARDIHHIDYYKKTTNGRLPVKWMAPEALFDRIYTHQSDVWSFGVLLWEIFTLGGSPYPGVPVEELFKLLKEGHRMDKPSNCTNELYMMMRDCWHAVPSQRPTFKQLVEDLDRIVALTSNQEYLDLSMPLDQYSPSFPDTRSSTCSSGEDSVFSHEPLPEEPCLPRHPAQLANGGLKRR
Chain of Calcium/calmodulin-dependent protein kinase kinase 2 (Q96RR4 whole entry): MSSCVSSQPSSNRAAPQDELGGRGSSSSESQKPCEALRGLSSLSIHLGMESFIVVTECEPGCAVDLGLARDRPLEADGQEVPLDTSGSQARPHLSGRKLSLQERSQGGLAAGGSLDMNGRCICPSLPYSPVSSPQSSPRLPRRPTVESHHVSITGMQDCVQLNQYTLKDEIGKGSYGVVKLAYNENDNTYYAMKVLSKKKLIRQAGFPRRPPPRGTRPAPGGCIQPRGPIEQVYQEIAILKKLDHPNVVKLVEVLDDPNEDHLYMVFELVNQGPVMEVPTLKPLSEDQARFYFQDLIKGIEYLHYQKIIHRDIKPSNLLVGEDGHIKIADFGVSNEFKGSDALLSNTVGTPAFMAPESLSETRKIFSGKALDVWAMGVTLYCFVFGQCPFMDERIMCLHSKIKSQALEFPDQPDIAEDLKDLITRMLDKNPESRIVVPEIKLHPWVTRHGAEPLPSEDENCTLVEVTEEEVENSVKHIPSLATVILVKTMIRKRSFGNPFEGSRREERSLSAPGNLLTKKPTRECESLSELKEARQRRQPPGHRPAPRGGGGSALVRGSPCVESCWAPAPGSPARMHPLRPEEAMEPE

By Kd is commonly meant the concentration at which binding is half-saturated. On to `CCc1cc2c(cc1N1CCC(N3CCOCC3)CC1)C(C)(C)c1[nH]c3cc(C#N)ccc3c1C2=O` [ALECTINIB], for which the Kd in [1] was 35.6 µM (active); in [2], > 30 µM (inactive); in assay [3], > 30 µM (inactive); in assay [4], > 30 µM (inactive); in assay [5], > 30 µM (inactive); in [6], > 30 µM (inactive). Besides, the Kd in assay [7] is 1.71 µM (active); in [8], > 30 µM (inactive); in assay [9] it was > 30 µM (inactive).

Take `Cc1c(NC(=O)OC[C@@H]2COCCN2)cn2ncnc(Nc3ccc4c(cnn4Cc4cccc(F)c4)c3)c12` [AC-480]: the Kd in [1], in assay [2], in assay [3], in [4], in assay [5] and in assay [6] was > 30 µM (inactive) in each case. The Kd in assay [7], in assay [8] and in [9] was > 30 µM (inactive) throughout.

Regarding `COc1cc(Nc2ncc(F)c(Nc3ccc4c(n3)N(COP(=O)(O)O)C(=O)C(C)(C)O4)n2)cc(OC)c1OC` [FOSTAMATINIB], the Kd in assay [1], in assay [2], in assay [3], in [4], in assay [5] and in assay [6] was > 30 µM (inactive) in each case. Moreover, the Kd in [7], in assay [8] and in [9] was > 30 µM (inactive) in each case.

Take `CC(C)CC(=O)Nc1[nH]nc2c1CN(C(=O)C1CCN(C)CC1)C2(C)C` [PHA-793887]: the Kd was > 30 µM (inactive) in [1]; 2.56 µM (active) in [2]; > 30 µM (inactive) in [3]; > 30 µM (inactive) in [4]; > 30 µM (inactive) in assay [5]; > 30 µM (inactive) in assay [6]. Moreover, the values for the Kd in assay [7], in assay [8] and in assay [9] were 1 µM (active), 0.103 µM (active) and > 30 µM (inactive), respectively.

For `COc1cccc2cc(-c3nc([C@H]4CC[C@H](C(=O)O)CC4)n4ncnc(N)c34)[nH]c12` [OSI-027], the Kd in [1], in [2], in assay [3], in [4], in assay [5] and in [6] was > 30 µM (inactive) each time. Besides, the Kd in assay [7], in assay [8] and in assay [9] was > 30 µM (inactive) throughout.

Turning to `COc1cc2ncnc(Nc3ccc(F)c(Cl)c3)c2cc1NC(=O)/C=C/CN1CCCCC1` [DACOMITINIB ANHYDROUS], the Kd in assay [1], in assay [2], in assay [3], in assay [4], in [5] and in assay [6] was > 30 µM (inactive) in each case. Moreover, the Kd in assay [7], in assay [8] and in [9] was > 30 µM (inactive) in each case.

On to `COc1cc2nccc(Oc3ccc(NC(=O)C4(C(=O)Nc5ccc(F)cc5)CC4)cc3)c2cc1OC` [CABOZANTINIB], for which the Kd in assay [1], in assay [2], in assay [3], in [4], in assay [5] and in [6] was > 30 µM (inactive) in each case. The Kd in assay [7], in assay [8] and in assay [9] was > 30 µM (inactive) throughout.

Turning to `NC[C@@](O)(c1ccc(Cl)cc1)c1ccc(-c2cn[nH]c2)cc1` [AT-13148], the Kd in [1], in [2], in assay [3], in assay [4], in assay [5] and in [6] was > 30 µM (inactive) in each case. The Kd in assay [7], in [8] and in [9] was > 30 µM (inactive) throughout.
